Assay: Clinical trial safety, integrated analysis of ALKA, STARTRK-1, STARTRK-2, STARTRK-NG (N=504)
Description: The following categories of frequency have been used: very common ≥1/10, common (≥1/100 to <1/10), uncommon (≥1/1,000 to <1/100), rare (≥1/10,000 to <1/1000), very rare (<1/10,000).

SMILES: CN1CCN(c2ccc(C(=O)Nc3n[nH]c4ccc(Cc5cc(F)cc(F)c5)cc34)c(NC3CCOCC3)c2)CC1 [Entrectinib, N-[5-(3,5-difluorobenzyl)-1H-indazol-3-yl]-4-(4-methyl-piperazin-1-yl)-2-(tetrahydro-pyran-4-ylamino)-benzamide]
- Laboratory: Hyperuricemia, Change from Baseline All Grades (N = 382): 50.8%
- Laboratory: Hyperuricemia, Change from Baseline to Grade 3 or 4 (N = 382): 6.8%
- Laboratory: Decreased Neutrophils, Change from Baseline All Grades (N = 457): 27.8%
- Laboratory: Decreased Neutrophils, Change from Baseline to Grade 3 or 4 (N = 457): 6.3%
- Laboratory: Increased AST, Change from Baseline All Grades (N = 478): 43.3%
- Laboratory: Increased AST, Change from Baseline to Grade 3 or 4 (N = 478): 3.3%
- Laboratory: Increased ALT, Change from Baseline All Grades (N = 479): 38.4%
- Laboratory: Increased ALT, Change from Baseline to Grade 3 or 4 (N = 479): 3.1%
- Laboratory: Increased Blood Creatinine, Change from Baseline All Grades (N = 480): 94.8%
- Laboratory: Increased Blood Creatinine, Change from Baseline to Grade 3 or 4 (N = 480): 3.1%
- Laboratory: Decreased Hemoglobin, Change from Baseline All Grades (N = 487): 65.7%
- Laboratory: Decreased Hemoglobin, Change from Baseline to Grade 3 or 4 (N = 487): 9.2%
- ALT increased, All Grades (N = 504): 16.1%
- ALT increased, Frequency Category (All Grades) (N = 504): very common (very common ≥1/10)
- ALT increased, Grade ≥3 (N = 504): 3.4%
- AST increased, All Grades (N = 504): 17.5%
- AST increased, Frequency Category (All Grades) (N = 504): very common (very common ≥1/10)
- AST increased, Grade ≥3 (N = 504): 3.6%
- Abdominal pain, All Grades (N = 504): 11.1%
- Abdominal pain, Frequency Category (All Grades) (N = 504): very common (very common ≥1/10)
- Abdominal pain, Grade ≥3 (N = 504): 0.6%
- Anemia, All Grades (N = 504): 28.2%
- Anemia, Frequency Category (All Grades) (N = 504): very common (very common ≥1/10)
- Anemia, Grade ≥3 (N = 504): 9.7%
- Arthralgia, All Grades (N = 504): 19.0%
- Arthralgia, Frequency Category (All Grades) (N = 504): very common (very common ≥1/10)
- Arthralgia, Grade ≥3 (N = 504): 0.6%
- Ataxia, Frequency Category (All Grades) (N = 504): very common (very common ≥1/10)
- Ataxia, Grade ≥3 (N = 504): 0.8%
- Blood creatinine increased, All Grades (N = 504): 25.4%
- Blood creatinine increased, Frequency Category (All Grades) (N = 504): very common (very common ≥1/10)
- Blood creatinine increased, Grade ≥3 (N = 504): 0.6%
- Cognitive Disorders, All Grades (N = 504): 24.2%
- Cognitive Disorders, Frequency Category (All Grades) (N = 504): very common (very common ≥1/10)
- Cognitive Disorders, Grade ≥3 (N = 504): 4.4%
- Congestive Heart Failure, All Grades (N = 504): 3.0%
- Congestive Heart Failure, Frequency Category (All Grades) (N = 504): common (common (≥1/100 to <1/10))
- Congestive Heart Failure, Grade ≥3 (N = 504): 2.2%
- Constipation, All Grades (N = 504): 42.9%
- Constipation, Frequency Category (All Grades) (N = 504): very common (very common ≥1/10)
- Constipation, Grade ≥3 (N = 504): 0.4%
- Cough, All Grades (N = 504): 21.4%
- Cough, Frequency Category (All Grades) (N = 504): very common (very common ≥1/10)
- Cough, Grade ≥3 (N = 504): 0.6%
- Decreased appetite, All Grades (N = 504): 11.9%
- Decreased appetite, Frequency Category (All Grades) (N = 504): very common (very common ≥1/10)
- Decreased appetite, Grade ≥3 (N = 504): 0.2%
- Dehydration, All Grades (N = 504): 7.9%
- Dehydration, Frequency Category (All Grades) (N = 504): common (common (≥1/100 to <1/10))
- Dehydration, Grade ≥3 (N = 504): 1.0%
- Diarrhea, All Grades (N = 504): 33.5%
- Diarrhea, Frequency Category (All Grades) (N = 504): very common (very common ≥1/10)
- Diarrhea, Grade ≥3 (N = 504): 2.6%
- Dizziness, All Grades (N = 504): 39.7%
- Dizziness, Frequency Category (All Grades) (N = 504): very common (very common ≥1/10)
- Dizziness, Grade ≥3 (N = 504): 1.2%
- Dysasthesia, All Grades (N = 504): 29.0%
- Dysasthesia, Frequency Category (All Grades) (N = 504): very common (very common ≥1/10)
- Dysasthesia, Grade ≥3 (N = 504): 0.2%
- Dysgeusia, All Grades (N = 504): 42.3%
- Dysgeusia, Frequency Category (All Grades) (N = 504): very common (very common ≥1/10)
- Dysgeusia, Grade ≥3 (N = 504): 0.4%
- Dysphagia, All Grades (N = 504): 10.1%
- Dysphagia, Frequency Category (All Grades) (N = 504): very common (very common ≥1/10)
- Dysphagia, Grade ≥3 (N = 504): 0.4%
- Dyspnea, All Grades (N = 504): 27.0%
- Dyspnea, Frequency Category (All Grades) (N = 504): very common (very common ≥1/10)
- Edema, All Grades (N = 504): 37.3%
- Edema, Frequency Category (All Grades) (N = 504): very common (very common ≥1/10)
- Edema, Grade ≥3 (N = 504): 1.4%
- Electrocardiogram QT prolonged, All Grades (N = 504): 2.0%
- Electrocardiogram QT prolonged, Grade ≥3 (N = 504): 0.6%
- Fatigue, All Grades (N = 504): 45.0%
- Fatigue, Frequency Category (All Grades) (N = 504): very common (very common ≥1/10)
- Fatigue, Grade ≥3 (N = 504): 5.0%
- Fractures, All Grades (N = 504): 6.2%
- Fractures, Frequency Category (All Grades) (N = 504): common (common (≥1/100 to <1/10))
- Fractures, Grade ≥3 (N = 504): 2.4%
- Headache, All Grades (N = 504): 17.5%
- Headache, Frequency Category (All Grades) (N = 504): very common (very common ≥1/10)
- Headache, Grade ≥3 (N = 504): 1.0%
- Hyperuricemia, All Grades (N = 504): 9.1%
- Hyperuricemia, Frequency Category (All Grades) (N = 504): common (common (≥1/100 to <1/10))
- Hyperuricemia, Grade ≥3 (N = 504): 1.8%
- Hypotension, All Grades (N = 504): 16.5%
- Hypotension, Frequency Category (All Grades) (N = 504): very common (very common ≥1/10)
- Hypotension, Grade ≥3 (N = 504): 2.4%
- Lung infection, All Grades (N = 504): 13.1%
- Lung infection, Frequency Category (All Grades) (N = 504): very common (very common ≥1/10)
- Mood disorders, All Grades (N = 504): 9.1%
- Mood disorders, Frequency Category (All Grades) (N = 504): common (common (≥1/100 to <1/10))
- Mood disorders, Grade ≥3 (N = 504): 0.6%
- Muscular weakness, All Grades (N = 504): 12.3%
- Muscular weakness, Frequency Category (All Grades) (N = 504): very common (very common ≥1/10)
- Muscular weakness, Grade ≥3 (N = 504): 1.2%
- Myalgia, All Grades (N = 504): 19.6%
